#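 Results reflect a 48-hour exposure of cells in 96-well plates to compound at five concentrations. TGI marks complete inhibition of growth.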
# How the values were obtained:
# Assay in all cases: DTP human tumour cell line panel, 48 h
# HOP-62 NSCLC = tested on: HOP-62 NSCLC
# NCI-H226 lung = tested on: NCI-H226 lung
# MCF7 breast = tested on: MCF7 breast
# M14 melanoma = tested on: M14 melanoma
# SR leukemia = tested on: SR leukemia
# KM12 colon = tested on: KM12 colon
# OVCAR-4 ovarian = tested on: OVCAR-4 ovarian
# TK-10 renal = tested on: TK-10 renal
# MDA-MB-435 = tested on: MDA-MB-435
# OVCAR-5 ovarian = tested on: OVCAR-5 ovarian
# HL-60(TB) leukemia = tested on: HL-60(TB) leukemia
# SF-539 CNS = tested on: SF-539 CNS
# UACC-257 melanoma = tested on: UACC-257 melanoma
# 786-0 renal = tested on: 786-0 renal
# MALME-3M melanoma = tested on: MALME-3M melanoma
# NCI-H522 lung = tested on: NCI-H522 lung
# SK-MEL-28 melanoma = tested on: SK-MEL-28 melanoma
# SK-MEL-5 melanoma = tested on: SK-MEL-5 melanoma
# BT-549 breast = tested on: BT-549 breast
# K-562 leukemia = tested on: K-562 leukemia
# OVCAR-8 ovarian = tested on: OVCAR-8 ovarian
# A549 NSCLC = tested on: A549 NSCLC
# RXF 393 renal = tested on: RXF 393 renal
# SF-268 CNS = tested on: SF-268 CNS
# NCI/ADR-RES ovarian = tested on: NCI/ADR-RES ovarian
# UO-31 renal = tested on: UO-31 renal
# DU-145 prostate = tested on: DU-145 prostate
# OVCAR-3 ovarian = tested on: OVCAR-3 ovarian
# SW-620 colon = tested on: SW-620 colon
# MDA-N = tested on: MDA-N
# UACC-62 melanoma = tested on: UACC-62 melanoma
# COLO 205 colon = tested on: COLO 205 colon
# HCT-15 colon = tested on: HCT-15 colon
# SF-295 CNS = tested on: SF-295 CNS
# RPMI-8226 leukemia = tested on: RPMI-8226 leukemia
# LOX IMVI melanoma = tested on: LOX IMVI melanoma
# EKVX NSCLC = tested on: EKVX NSCLC
# ACHN renal = tested on: ACHN renal
# NCI-H23 lung = tested on: NCI-H23 lung
# HCC-2998 colon = tested on: HCC-2998 colon
# SNB-75 CNS = tested on: SNB-75 CNS
# IGROV1 ovarian = tested on: IGROV1 ovarian
# U251 CNS = tested on: U251 CNS
# SN12C renal = tested on: SN12C renal
# MOLT-4 leukemia = tested on: MOLT-4 leukemia
# HCT-116 colon = tested on: HCT-116 colon
# MDA-MB-231 breast = tested on: MDA-MB-231 breast
# SK-MEL-2 melanoma = tested on: SK-MEL-2 melanoma
# HS 578T breast = tested on: HS 578T breast
# CCRF-CEM leukemia = tested on: CCRF-CEM leukemia
# T-47D breast = tested on: T-47D breast
# NCI-H460 lung = tested on: NCI-H460 lung
# HOP-92 NSCLC = tested on: HOP-92 NSCLC
# SNB-19 CNS = tested on: SNB-19 CNS
# HT29 colon = tested on: HT29 colon
# CAKI-1 renal = tested on: CAKI-1 renal
# SK-OV-3 ovarian = tested on: SK-OV-3 ovarian
# PC-3 prostate = tested on: PC-3 prostate
# A498 renal = tested on: A498 renal
compound,measurement,setting,value
CCOC(=O)CCC(NC(=O)c1ccc(Nc2nc3ccc(C(F)(F)F)cc3nc2-c2ccccc2)cc1)C(=O)OCC (configuration not stated),TGI,HOP-62 NSCLC,> 100 µM
same,TGI,NCI-H226 lung,> 100 µM
same,TGI,MCF7 breast,> 100 µM
same,TGI,M14 melanoma,46.2 µM
same,TGI,SR leukemia,> 100 µM
same,TGI,KM12 colon,> 100 µM
same,TGI,OVCAR-4 ovarian,> 100 µM
same,TGI,TK-10 renal,> 100 µM
same,TGI,MDA-MB-435,> 100 µM
same,TGI,OVCAR-5 ovarian,> 100 µM
same,TGI,HL-60(TB) leukemia,> 100 µM
same,TGI,SF-539 CNS,> 100 µM
same,TGI,UACC-257 melanoma,35.3 µM
same,TGI,786-0 renal,> 100 µM
same,TGI,MALME-3M melanoma,76.8 µM
same,TGI,NCI-H522 lung,55.2 µM
same,TGI,SK-MEL-28 melanoma,> 100 µM
same,TGI,SK-MEL-5 melanoma,> 100 µM
same,TGI,BT-549 breast,> 100 µM
same,TGI,K-562 leukemia,> 100 µM
same,TGI,OVCAR-8 ovarian,> 100 µM
same,TGI,A549 NSCLC,> 100 µM
same,TGI,RXF 393 renal,> 100 µM
same,TGI,SF-268 CNS,> 100 µM
same,TGI,NCI/ADR-RES ovarian,> 100 µM
same,TGI,UO-31 renal,> 87.2 µM
same,TGI,DU-145 prostate,> 100 µM
same,TGI,OVCAR-3 ovarian,76 µM
same,TGI,SW-620 colon,> 100 µM
same,TGI,MDA-N,75.4 µM
same,TGI,UACC-62 melanoma,44.2 µM
same,TGI,COLO 205 colon,29.7 µM
same,TGI,HCT-15 colon,> 100 µM
same,TGI,SF-295 CNS,> 100 µM
same,TGI,RPMI-8226 leukemia,> 100 µM
same,TGI,LOX IMVI melanoma,> 64.2 µM
same,TGI,EKVX NSCLC,> 100 µM
same,TGI,ACHN renal,> 100 µM
same,TGI,NCI-H23 lung,> 100 µM
same,TGI,HCC-2998 colon,> 85.9 µM
same,TGI,SNB-75 CNS,> 100 µM
same,TGI,IGROV1 ovarian,> 100 µM
same,TGI,U251 CNS,> 100 µM
same,TGI,SN12C renal,> 100 µM
same,TGI,MOLT-4 leukemia,77.8 µM
same,TGI,HCT-116 colon,> 100 µM
same,TGI,MDA-MB-231 breast,58.9 µM
same,TGI,SK-MEL-2 melanoma,49.7 µM
same,TGI,HS 578T breast,85.1 µM
same,TGI,CCRF-CEM leukemia,> 100 µM
same,TGI,T-47D breast,60.4 µM
same,TGI,NCI-H460 lung,> 100 µM
same,TGI,HOP-92 NSCLC,> 100 µM
same,TGI,SNB-19 CNS,> 100 µM
same,TGI,HT29 colon,> 100 µM
same,TGI,CAKI-1 renal,> 100 µM
COC1OC(CS(=O)(=O)O)C(O)C(O)C1O (configuration not stated),TGI,HOP-62 NSCLC,> 100 µM
same,TGI,SK-OV-3 ovarian,> 100 µM
same,TGI,NCI-H226 lung,> 100 µM
same,TGI,MCF7 breast,> 100 µM
same,TGI,M14 melanoma,> 100 µM
same,TGI,SR leukemia,> 100 µM
same,TGI,KM12 colon,> 100 µM
same,TGI,OVCAR-4 ovarian,> 100 µM
same,TGI,TK-10 renal,> 100 µM
same,TGI,MDA-MB-435,> 100 µM
same,TGI,OVCAR-5 ovarian,> 100 µM
same,TGI,HL-60(TB) leukemia,> 100 µM
same,TGI,UACC-257 melanoma,> 100 µM
same,TGI,MALME-3M melanoma,> 100 µM
same,TGI,SK-MEL-28 melanoma,> 100 µM
same,TGI,SK-MEL-5 melanoma,> 100 µM
same,TGI,BT-549 breast,> 100 µM
same,TGI,K-562 leukemia,> 100 µM
same,TGI,OVCAR-8 ovarian,> 100 µM
same,TGI,RXF 393 renal,> 100 µM
same,TGI,NCI/ADR-RES ovarian,> 100 µM
same,TGI,UO-31 renal,> 100 µM
same,TGI,DU-145 prostate,> 100 µM
same,TGI,OVCAR-3 ovarian,> 100 µM
same,TGI,SW-620 colon,> 100 µM
same,TGI,MDA-N,> 100 µM
same,TGI,UACC-62 melanoma,> 100 µM
same,TGI,PC-3 prostate,> 100 µM
same,TGI,COLO 205 colon,> 100 µM
same,TGI,HCT-15 colon,> 100 µM
same,TGI,SF-295 CNS,> 100 µM
same,TGI,RPMI-8226 leukemia,> 100 µM
same,TGI,LOX IMVI melanoma,> 100 µM
same,TGI,NCI-H23 lung,> 100 µM
same,TGI,HCC-2998 colon,> 100 µM
same,TGI,SNB-75 CNS,> 100 µM
same,TGI,IGROV1 ovarian,> 100 µM
same,TGI,U251 CNS,> 100 µM
same,TGI,SN12C renal,> 100 µM
same,TGI,MOLT-4 leukemia,> 100 µM
same,TGI,HCT-116 colon,> 100 µM
same,TGI,SK-MEL-2 melanoma,> 100 µM
same,TGI,HS 578T breast,> 100 µM
same,TGI,CCRF-CEM leukemia,> 100 µM
same,TGI,A498 renal,> 100 µM
same,TGI,T-47D breast,> 100 µM
same,TGI,NCI-H460 lung,> 100 µM
same,TGI,HOP-92 NSCLC,> 100 µM
same,TGI,SNB-19 CNS,> 100 µM
same,TGI,HT29 colon,> 100 µM
same,TGI,CAKI-1 renal,> 100 µM
